The source of these data is article PMC6054100, “Exploring the chemical space of the lysine-binding pocket of the first kringle domain of hepatocyte growth factor/scatter factor (HGF/SF) yields a new class of inhibitors of HGF/SF-MET binding” (Chemical Science, 2015).

For assay [1], the system named is MET downstream signalling (Erk 1/2, Akt) in Vero cells. Nature of the assay: MET, Erk1/2 and Akt phosphorylation assay in NK1-stimulated Vero cells (Western blot). It counts as cell-based. Conditions: Vero cells stimulated with NK1; compound 1 mM (lane 5), 0.1% DMSO. How it is done:
We evaluated the effect of piperazine-like compounds and MB605 on Vero cells by assessing MET, Erk 1/2 and Akt phosphorylation in response to stimulation using […] NK1. MB605 was dissolved in DMSO, which limited the range of concentrations tested to ≤1 mM in order to avoid solvent effects on cell function/viability. The water-soluble piperazine-like compounds, in contrast, could be tested at concentrations up to 100 mM.
Fig. 6 Biological activity of the piperazine-like compounds and MB605. (a–e) Vero cells expressing the receptor endogenously on their cell surface were stimulated with HGF/SF or NK1 and phosphorylation of MET and downstream targets Akt and Erk1/2 was analysed. Piperazine-like compounds HEPES (a), (H)EPPS (b), MES (c), MOPS (d) and CAPS (e) were tested at 100 mM (lanes 4), 10 mM (lanes 5), 1 mM (lanes 6) and 100 μM (lanes 7) concentration in the presence of 1 nM NK1. To control for activating or inhibiting effects of the compounds independently of MET, piperazine-like compounds were tested on cells at 100 mM without stimulation by NK1 (lanes 3). Biological activity of MB605 (f) was investigated at 1 mM (lane 5), 100 μM (lane 6) and 10 μM (lane 7) in the presence of a constant concentration of DMSO (0.1%). A solvent control (0.1% DMSO, lane 3) was included in order to account for the effect of DMSO on the cells. A positive control (1 nM NK1 in the presence of 0.1% DMSO) is shown in lane 4. In all experiments, un-stimulated cells served as negative control (lanes 1) while cells stimulated with 1 nM NK1 served as positive control (lanes 2).
The ability of MB605 and the piperazine-like compounds to inhibit MET, Erk and Akt phosphorylation in the presence of NK1 was tested using mammalian Vero cells as described by Ferraris et al.[47] and further details are given in the ESI ^† section of the manuscript. […]
For MET, Erk1/2 and Akt phosphorylation assays, Vero cells were seeded at 2.1 × 10^5 cells we ll -1 (2 ml we ll -1) in 6-well plates and grown to 90% conf luence in 10% FCS/DMEM media and then switched to serum-free medium (to avoid any growth f actors present in the serum).
24 hours post starvation the cells were stimulated for 5 min at 37°C with each individual piperazine -like compounds as well as with NK1 (1 nM) pre-incubated with different concentrations of the piperazine- like compounds (100 mM, 10 mM, 1 mM and 100 μM) or MB605 (1 mM, 100 μM and 10 μM). Stimulations with either 0. 1% DMS O or 1 nM of NK1 […]
solution were used as a negative and a positive control, respectively. The cells were then washed in PBS buffer, lysed on ice f or 30 min and frozen at -80 °C until further analysis. For

The next assay has as its target NK1 (Homo sapiens, UniProt P14210). Nature of the assay: SPR fragment library screening against NK1. The assay is classed as binding. More on the design: made in house; host or cells: Pichia pastoris. Conditions: for SPR response: normalised relative value against NK1. How it is done:
Supplementary Materials and Methods
Fragment library screening and data analysis
Met567 (soluble truncated f ragment of the MET ectodomain, residues 25- 567), NK1 and t he SPH domain were immobilized on CM5 chips by amine coupling. NK1 was diluted into 10 m M phosphate pH 7.0 and the SPH domain into 10 mM acetate pH 5.5 to a final concentration of 2.5 μM and 1 μM, respectively, for coupling. The immobilization wizard within the Biacore T100 software was set to “aim for immobiliz ed level” of 8000 RU to achieve complete saturation of the chip surface.
W ith minor deviations, the procedure and conditions outlined below were used f or a ll screening s of an in-house fragment library of 1338 members against individual target proteins. The running buffer was PBS pH 7.4, 0.05% Tween 20, 0.25% DMSO (1% DMSO for Met567). Fragments were stored as 100 mM stock solutions in DMSO. Prior to screening, fragment samples were diluted to 500 μM (1 mM f or Met567) in running buffer.
Screening was performed in 96- we ll plates at a flow rate of 30 μl min-1 with 1 min sample injection f ollowed by dissociation f or 1 min and surf ace regeneration using 1 M NaCl f or 30 […]
post-regeneration baseline exceeded the pre- sample baseline by more than 10 RU, a second regeneration cycle with 50% ethylene glycol was used. In order to be able to correct for small variations in DMSO concentration between samples, eight solvent samples ranging from 0.012 to 1.5% DMSO were injected every 40th cycle. To monitor the binding capacity of the NK1, SPH and Met567 surfaces throughout the screening, injections of 500 μM HEPES (NK1), 0.25 μM Met567 (SPH) and 0.2 μM NK1 and 1% DMSO (Met567) were carried out every 40th cycle. The flow cell temperature was 25°C. NK1 and the SPH domain were immobilized on the same chip (channels 2 and 3 respectively) and were theref ore screened in parallel. Met567 was screened separately and results are published in an accompanying paper (W in t er et al. 2015, in revision).
For data analysis, fir st, all responses were reference and solvent corrected. 1 Next, equilibrium binding for every fragment was determined and hits established by applying several filters: sensorgram shape, upper and lower threshold. Typical sensorgrams from fragment screening show “square curves” in SPR due to the fast on and off rates and fragments not showing this response were discarded from further analysis. Binding levels are represented as response units (RU) but the SPR signal is a convolution of multiple parameters including target coupling density, target -binding activity, target molecular weight and molecular weight of each injected fragment. To be able to identif y hits accurately and to be able to compare responses between different plates and targets, data were normalised against these factors. First the theoretical maximum response for each fragment was calculated using equation 1:
RRmmm = CCCCCCCC ddCdCdd× MMffmCmdCd (Equation 1)
This RUmax value diff ers for each protein target because it depends on the molecular weight of the protein and the amount of protein immobilized on the chip (coupling density). The RUmax was then used to calculate the normalised relative SPR response:
NNNNNNNNNN NNNNr NrN SSR NNNrNrNN = RRcppppcppc× 100% (Equation 2) […]
fragment should cause upon binding. 100% response would be 1:1 binding wit h levels above 100% implying over-stoichiometric binding. […]
Fragment library screening to identify small molecule binders

Chain of NK1 (P14210 32-210 isoform P14210-6 limits assumed): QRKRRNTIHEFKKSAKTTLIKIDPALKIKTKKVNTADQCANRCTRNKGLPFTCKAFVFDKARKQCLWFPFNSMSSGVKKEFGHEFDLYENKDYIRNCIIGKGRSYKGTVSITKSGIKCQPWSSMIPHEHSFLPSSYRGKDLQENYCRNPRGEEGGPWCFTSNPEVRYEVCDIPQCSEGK

On to `O=C(O)CCc1ccco1` [MB605], for which the “Activity on NK1-induced MET, Erk 1/2 and Akt phosphorylation” value in assay [1] is “active”. Besides, the Ranking order at NK1 (based on fragment screening, rank among the 71 NK1 hits (ESI Tables S3-S7)) is recorded as 1. For the same compound, the SPR response is reported as 215% at NK1 (fragments 500 μM (ESI Tables S3-S7)) and 215% on NK1 (initial fragment screening, fragments 500 μM (Table 3)).
